# Test results: patent US20220016241A1, “COMPOSITIONS AND METHODS FOR REDUCING ANTIGEN-SPECIFIC IMMUNOGENICITY” (The Research Foundation for The State University of New York, priority 2013, published 2022)
# Key:
# [1] = system: anti-FVIII titers; test: Effect of OPLS on in-vivo immunogenicity of FVIII after sc administration; parameters: species or system HA mice; conditions: days 1, 8, 10, 12
# Experimental: Effect of OPLS on the immunogenicity of FVIII after SC administration in-vivo: 21 HA mice between 6 and 8 weeks of age were divided into 3 groups: group one received 1 ug FVIII SC in the abdominal region. Group two received 1 μg FVIII plus 0.4 mg OPLS SC in the abdominal region and group 3 received 1 μg FVIII plus 5 mg OPLS sc in the abdominal region. Incubation of FVIII with OPLS at 37° C. for 30 minutes ensures complexation, but for this example, OPLS and FVIII were combined at the desired concentrations at room temperature (22° C.) and immediately administered (within 1 minute). This treatment was given one day 1, 8, 10 and 12. Three days after the last injection the animals were sacrificed. Blood was centrifuged at 7500 rpm for 5 min at 4 degrees Celsius. Plasma was then removed and stored at −80 degrees Celsius until analysis.
# Total titers were determined by classical standard ELISA. Anti-FVIII antibody (ESH8) was used as a control. Statistics was done on the arithmetic mean of the log transformed data, graphs are reported as geometric means. Non-responders were given the value of the plate specific factor for uniformity. […]
# Statistics: Non-parametric one-way ANOVA with Tukey's post hoc analysis was used for the analysis of titer values where appropriate. Student t-test was used for comparing mean intensity of fluorescence (MIF) for flow cytomerty data. […]
# [2] = system: anti-KLH IgG titer; test: 28-day repeat dose TDAR study, anti-KLH IgG; format: in vivo, CD-1 mice; conditions: 28 daily doses, any OPLS dose
# Source text: FIG. 20. Anti-KLH IgG titer levels obtained from a short term, repeat dose (28 daily doses) TDAR study conducted in CD-1 mice.
# [3] = system: anti-GAA antibody titers; test: Effect of OPLS on immunogenicity of GAA protein; format: in vivo, mice; conditions: 5 mg dose with 1 μg GAA, 4 weekly s.c., 2 week rest
# Experimental: Materials and Methods: GAA Source: Full length recombinant rhGAA was produced in Human Kidney Embryo Cells for our use by Creative Biomart (Shirley, N.Y.); OPLS Source: Sigma-Aldrich (St. Louis, Mo.). n=8 animals/group were immunized with 4 weekly s.c. injections of 1 μg of GAA in 100 μl of either sterile TRIS for the free group or in 5 mg OPLS in sterile TRIS for the OPLS-GAA group. A group of 8 mice will receive the same dose of CBrhGAA in 5 mg O-phospho-D-serine (OPDS) solution as a negative control. After a 2 week rest period, a blood sample from the saphenous vein will be collected. Samples were stored at −80° C. until analysis. These samples were then analyzed for anti-GAA Ab titers. Anti-GAA antibody titers were measured as follows: ELISA plate (maxisorp, NUNC) was coated with 50 μl of 5 μg/ml of sterile rhGAA in sodium carbonate-bicarbonate buffer pH =9.6. The plate was incubated overnight at 4° C. The plate was washed six times with PBS containing 0.05% Tween 20 (PBS-T, 250 μl/well) using an automated plate washer. The plate was blocked with PBS containing 1% BSA (300 μl/well) as the block buffer for 2 hr at 37° C. […] The reaction was stopped with 2 N sulfuric acid and read immediately at 450 nm using a micro-plate reader. The titer values are quantitated using a statistical endpoint method as described by Frey et al. Control plasma samples were run on each plate. […]
# [4] = system: anti-FVIII antibody titers; test: FVIII-specific tolerance with OPLS, OPDS or Dex, rechallenge with free FVIII (FIG. 11); conditions: s.c. co-administration with FVIII, then s.c. free FVIII
# [5] = system: anti-FVIII total titers; test: OPLS-FVIII sequential administration study; format: in vivo, Hemophilia A mice; conditions: 5 mg OPLS then 1 μg FVIII 5 minutes later, same site, 4 weekly sc; 4 weekly iv rechallenge
# Experimental: To determine if OPLS can exert its immunomodulatory effects on the immune response to FVIII when the two are administered in separate injections temporally spaced apart, at the same injection site the following experiments were carried out. Hemophilia A mice (n=6 animals/group) were immunized with 4 weekly sc injections as follows. The control group of animals received one injection of sterile TRIS buffer (100 μL volume) then, after a 5 minute wait, they received a second injection of 1 μg FVIII in sterile TRIS (100 μL volume) at the same injection site. The second group of mice received one injection of 5 mg OPLS (100 μL volume) then, after a 5 minute wait, they received a second injection of 1 μg FVIII in sterile TRIS (100 μL volume) at the same injection site. After a two-week rest period (week 6) all of the mice were then rechallenged with 4 weekly intravenous injections of 1 μg of FVIII in 100 μL sterile TRIS […]. Mice were sacrificed after two weeks and a terminal blood sample was collected using cardiac puncture. Analysis was done by ELISA for total titers. […] This administration method was able to induce a hypo-responsiveness towards FVIII.
smiles,measurement,setting,value
"N[C@@H](COP(=O)(O)O)C(=O)O [OPLS, O-Phospho-L-Serine]",Total anti-FVIII titer,"[1]; 1 μg FVIII with high dose OPLS (5 mg/injection) sc, geometric mean±SD",5.34±5.8 arbitrary units
same,Total anti-FVIII titer,"[1]; 1 μg FVIII with low dose OPLS (0.4 mg/injection) sc, not statistically significant vs FVIII alone",137±1.4 arbitrary titer units
same,Anti-KLH IgG titer levels vs vehicle,[2],No statistical significance
same,Anti-GAA antibody titers vs GAA alone,[3],lower
same,FVIII-specific hypo-responsiveness upon rechallenge,[4],hypo-responsiveness
same,Total anti-FVIII titers after rechallenge vs free FVIII,[5],significantly lower
